Assay results: patent US20090030086A1, “ANTIMICROBIAL AGENTS” (priority 2005, published 2009)
In brackets after ≈: the same amount, converted by molar mass. Where two headings read alike, the source gives them in different places.

Tests used:
S. aureus ATCC 29213 [1] = assay: MBC assay; type: cell-based, Staphylococcus aureus
Procedure: (§1) The staphylococci and enterococci were cultured and maintained on Mueller-Hinton Medium (agar and broth) at pH 7.2; they were incubated aerobically at 37° C. for 24 hours.
(§2) This assay, normally carried out after an MIC assay, determines the minimum concentration of a compound that is lethal to the micro-organism being tested.
(§3) These samples were then individually sub-cultured on non-selective agar medium, under the incubation conditions described above. Following incubation they were examined visually for bacterial growth.
(§4) The following experiments all used S. aureus ATCC 29213 as the test organism. MIC, MBC and DDA assays, as described above, were carried out using a range of different benzoquinones and hydroquinones. Supplemented DDA assays, in the presence of salt, lipid and blood, were also conducted.

P. acnes NCTC 737 [2] = assay: Disc diffusion assay (DDA); type: cell-based, Propionibacterium acnes; conditions: P. acnes NCTC 737, unsupplemented agar, 200 μg per disc (2,6-dimethoxy-p-benzoquinone 100 μg); for zone of inhibition at 200 µg/disc: Cutibacterium acnes, NCTC737, read-out: DDA (diameter of zone of inhibition)
Procedure: (§5) The Propionibacterium spp organisms were cultured and maintained on Wilkins-Chalgren Anaerobe Medium (agar and broth) at pH 6.0; cultures were incubated anaerobically at 37° C. for 72 hours.
(§6) A sterile paper disc was impregnated with a sample of the test compound and a minimum of 30 minutes allowed for the solvents to evaporate as far as possible. The disc was then placed on an agar plate onto which the test micro-organism had been inoculated. The plate was then incubated under the conditions described above, following which it was examined visually for signs of bacterial growth. […] The diameter of this zone of “inhibition” was measured using a ProtoCOL™ automated zone sizer (Synbiosis, Cambridge, UK).
(§7) The area of the zone of inhibition was calculated from the measured zone diameter (D) using the formula π(D/2)^2.
(§8) For most DDA assays, 200 μg of each compound was loaded onto each disc.

P. acnes NCTC 737 [3] = assay: MBC assay; type: cell-based, Propionibacterium acnes; conditions: P. acnes NCTC 737
Procedure: as §5, §2, §3
(§9) MIC, MBC and DDA assays, as described above, were carried out using a range of different benzoquinones and hydroquinones. Supplemented DDA assays, in the presence of salt and lipid, were also conducted.

P. acnes NCTC 737 [4] = assay: Supplemented disc diffusion assay; type: cell-based, Propionibacterium acnes; conditions: P. acnes NCTC 737; for zone of inhibition at 200 µg/disc: Cutibacterium acnes, NCTC737, 72 h
Procedure: as §5, §6
(§10) Performance under these conditions can provide a more reliable indication of activity on topical application. For assays conducted using S. aureus strains, the supplements were defibrinated horse blood (5% v/v), lipid (Tween™ 80 at 1% v/v) and sodium chloride (100 mM). For those using Propionibacterium spp. strains, the supplements were lipid (Tween™ 80 at 1% v/v) and sodium chloride (100 mM).
as §9, §8

S. aureus ATCC 29213 [5] = assay: Disc diffusion assay (DDA); type: cell-based, Staphylococcus aureus; conditions: S. aureus ATCC 29213, unsupplemented agar, 200 μg per disc (thymoquinone 50 μg, 2,6-dimethoxy-p-benzoquinone 100 μg); for zone of inhibition at 200 µg/disc: Staphylococcus aureus, ATCC29213, read-out: DDA (diameter of zone of inhibition)
Procedure: as §1, §6, §7, §8

S. aureus ATCC 29213 [6] = assay: MIC assay; type: cell-based, Staphylococcus aureus; conditions: S. aureus ATCC 29213, Mueller-Hinton broth pH 7.2, aerobic, 37° C., 24 hours
Procedure: 1. Staphylococcus aureus—the principal staphylococcal test micro-organism used in these studies was Staphylococcus aureus ATCC 29213. This strain is the one recommended for QC/QA purposes in Minimum Inhibitory Concentration (MIC) assays by the US Clinical and Laboratory Standards Institute (formerly the NCCLS), an FDA-recognised body.
as §1
(§11) This is a standard international method for quantitatively assessing the antimicrobial activity of a compound in a liquid medium. The method used a 96-well microtitre plate, capable of holding about 200 μl of liquid per well. […] The culture media were as described above for the relevant test organisms.
(§12) The wells were inoculated with a liquid suspension of freshly grown micro-organism and incubated under the conditions described above. After incubation, the microtitre plate was examined visually (with the aid of a light box) for cloudiness in each well, which would indicate microbial growth. The MIC value was recorded as the lowest concentration of test compound required to inhibit microbial growth, i.e., the lowest concentration for which the liquid in the well remained clear.
(§13) The assays were conducted in duplicate and included both negative (culture medium only) and positive (culture medium, diluting solvent and inoculum) controls.
as §4

S. aureus ATCC 29213 [7] = assay: Supplemented disc diffusion assay; type: cell-based, Staphylococcus aureus; conditions: S. aureus ATCC 29213, 200 μg per disc (thymoquinone 50 μg, 2,6-dimethoxy-p-benzoquinone 100 μg); for zone of inhibition at 200 µg/disc: Staphylococcus aureus, ATCC29213, 24 h
Procedure: as §1, §6, §10, §4, §8

P. acnes NCTC 737 [8] = assay: MIC assay; type: cell-based, Propionibacterium acnes; conditions: P. acnes NCTC 737, Wilkins-Chalgren broth pH 6.0, anaerobic, 37° C., 72 hours
Procedure: 2. Propionibacterium spp.—the principal propionibacterial strain used in these studies was Propionibacterium acnes NCTC 737.
as §5, §11, §12, §13, §9

[9] = Staphylococcus aureus, ATCC29213, read-out: MBC
[10] = Cutibacterium acnes, NCTC737, read-out: MBC
[11] = Tween 80 at 1% v/v, 200 μg per disc (2,6-dimethoxy-p-benzoquinone 100 μg), read-out: DDA + lipid
[12] = sodium chloride 100 mM, 200 μg per disc (2,6-dimethoxy-p-benzoquinone 100 μg), read-out: DDA + salt
[13] = Staphylococcus aureus, ATCC29213, read-out: MIC
[14] = Tween 80 at 1% v/v, read-out: DDA + lipid
[15] = defibrinated horse blood 5% v/v, read-out: DDA + blood
[16] = sodium chloride 100 mM, read-out: DDA + salt
[17] = Cutibacterium acnes, NCTC737, read-out: MIC

MIC/MBC ratio (S. aureus ATCC 29213 [1])	MIC/MBC ratio (P. acnes NCTC 737 [3])	MIC (S. aureus ATCC 29213 [6]; [13]) [µg/mL]	MIC (P. acnes NCTC 737 [8]; [17]) [µg/mL]	SMILES	MBC (S. aureus ATCC 29213 [1]; [9]) [µg/mL]	zone of inhibition at 200 µg/disc (P. acnes NCTC 737 [2]) [mm]	MBC (P. acnes NCTC 737 [3]; [10]) [µg/mL]	zone of inhibition at 200 µg/disc (P. acnes NCTC 737 [4]; [11]) [mm]	zone of inhibition at 200 µg/disc (P. acnes NCTC 737 [4]; [12]) [mm]	zone of inhibition at 200 µg/disc (S. aureus ATCC 29213 [5]) [mm]	zone of inhibition at 200 µg/disc (S. aureus ATCC 29213 [7]; [14]) [mm]	zone of inhibition at 200 µg/disc (S. aureus ATCC 29213 [7]; [15]) [mm]	zone of inhibition at 200 µg/disc (S. aureus ATCC 29213 [7]; [16]) [mm]	further results
1	1	7.8 (≈ 35.4 µM)	15.6 (≈ 70.8 µM)	CC(C)(C)C1=CC(=O)C(=O)C(C(C)(C)C)=C1 [3,5-di-t-butyl-o-benzoquinone]	7.8 (≈ 35.4 µM)	31.8	15.6 (≈ 70.8 µM)	26.4	40.5	23.4	17.4	15.9	23	
1	0.5	7.8 (≈ 35.1 µM)	7.8 (≈ 35.1 µM)	CC(C)(C)c1cc(O)c(O)c(C(C)(C)C)c1 [3,5-di-t-butylcatechol]	7.8 (≈ 35.1 µM)	35.9	15.6 (≈ 70.2 µM)	0	37.3	18.8	10.9	11.9	19.7	
0.5	0.5	7.8 (≈ 35.1 µM)	7.8 (≈ 35.1 µM)	CC(C)(C)c1cc(C(C)(C)C)c(O)cc1O [4,6-di-t-butylresorcinol]	15.6 (≈ 70.2 µM)	36.6	15.6 (≈ 70.2 µM)	0	37.8	8.09	0	0	8.4	

Second part, the molecule before the results:

SMILES	MIC/MBC ratio (S. aureus ATCC 29213 [1])	MIC/MBC ratio (P. acnes NCTC 737 [3])	MIC (S. aureus ATCC 29213 [6]; [13]) [µg/mL]	MIC (P. acnes NCTC 737 [8]; [17]) [µg/mL]	MBC (S. aureus ATCC 29213 [1]; [9]) [µg/mL]	zone of inhibition at 200 µg/disc (P. acnes NCTC 737 [2]) [mm]	MBC (P. acnes NCTC 737 [3]; [10]) [µg/mL]	zone of inhibition at 200 µg/disc (P. acnes NCTC 737 [4]; [11]) [mm]	zone of inhibition at 200 µg/disc (P. acnes NCTC 737 [4]; [12]) [mm]	zone of inhibition at 200 µg/disc (S. aureus ATCC 29213 [5]) [mm]	zone of inhibition at 200 µg/disc (S. aureus ATCC 29213 [7]; [14]) [mm]	zone of inhibition at 200 µg/disc (S. aureus ATCC 29213 [7]; [15]) [mm]	zone of inhibition at 200 µg/disc (S. aureus ATCC 29213 [7]; [16]) [mm]	further results
CC(C)(C)C1=CC(=O)C=CC1=O [2-t-butyl-p-benzoquinone]	1	0.5	15.6 (≈ 95 µM)	7.8 (≈ 47.5 µM)	15.6 (≈ 95 µM)	60.8	15.6 (≈ 95 µM)	> 90	> 90	58.5	> 90	10.9	54.7	effect of lipid on antimicrobial activity (P. acnes NCTC 737 [4]; activity increases in the presence of lipid): potentiated
Oc1c(Cl)c(Cl)c(O)c(Cl)c1Cl [tetrachloro-p-hydroquinone]	1	1												MBC (S. aureus ATCC 29213 [1]): 125 µg/mL (≈ 504 µM); DDA (diameter of zone of inhibition) (P. acnes NCTC 737 [2]): 25.37 mm; MBC (P. acnes NCTC 737 [3]): 31.25 µg/mL (≈ 126 µM); DDA + lipid (P. acnes NCTC 737 [4]; Tween 80 at 1% v/v, 200 μg per disc (2,6-dimethoxy-p-benzoquinone 100 μg)): 0.0 mm; DDA + salt (P. acnes NCTC 737 [4]; sodium chloride 100 mM, 200 μg per disc (2,6-dimethoxy-p-benzoquinone 100 μg)): 28.27 mm; DDA (diameter of zone of inhibition) (S. aureus ATCC 29213 [5]): 16.25 mm; MIC (S. aureus ATCC 29213 [6]): 125 µg/mL (≈ 504 µM); DDA + lipid (S. aureus ATCC 29213 [7]; Tween 80 at 1% v/v): 14.69 mm; DDA + blood (S. aureus ATCC 29213 [7]; defibrinated horse blood 5% v/v): 9.38 mm; DDA + salt (S. aureus ATCC 29213 [7]; sodium chloride 100 mM): 16.88 mm; MIC (P. acnes NCTC 737 [8]): 31.25 µg/mL (≈ 126 µM)
